Test results as given in ChEMBL document CHEMBL5291721, “A preclinical secondary pharmacology resource illuminates target-adverse drug reaction associations of marketed drugs” (Nat Commun, 2023).

Columns and labels:
Mu-type opioid receptor = Mu-type opioid receptor (Homo sapiens, UniProt P35372)
[1] = molecular target: cGMP-inhibited 3',5'-cyclic phosphodiesterase 3A (Homo sapiens, UniProt Q14432); assay type: functional
[2] = molecular target: T1, Alpha-2C adrenergic receptor (Homo sapiens, UniProt P18825); assay type: functional
T1 sequence (P18825 whole entry): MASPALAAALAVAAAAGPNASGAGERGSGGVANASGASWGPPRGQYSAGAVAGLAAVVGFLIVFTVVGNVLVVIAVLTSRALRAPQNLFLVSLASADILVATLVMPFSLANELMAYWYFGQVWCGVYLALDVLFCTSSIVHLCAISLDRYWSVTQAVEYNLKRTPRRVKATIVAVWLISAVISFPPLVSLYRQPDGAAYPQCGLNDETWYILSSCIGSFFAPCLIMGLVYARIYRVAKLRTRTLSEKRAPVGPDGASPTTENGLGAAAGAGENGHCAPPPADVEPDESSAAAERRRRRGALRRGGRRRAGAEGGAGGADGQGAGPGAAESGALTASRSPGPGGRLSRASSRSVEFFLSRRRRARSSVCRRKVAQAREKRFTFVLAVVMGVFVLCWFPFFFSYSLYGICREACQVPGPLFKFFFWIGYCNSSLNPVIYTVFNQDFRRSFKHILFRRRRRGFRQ

[3] = molecular target: 3',5'-cyclic-AMP phosphodiesterase 4D (Homo sapiens, UniProt Q08499); assay type: functional
[4] = molecular target: T2, Cholecystokinin receptor type A (Homo sapiens, UniProt P32238)
T2 sequence (P32238 whole entry): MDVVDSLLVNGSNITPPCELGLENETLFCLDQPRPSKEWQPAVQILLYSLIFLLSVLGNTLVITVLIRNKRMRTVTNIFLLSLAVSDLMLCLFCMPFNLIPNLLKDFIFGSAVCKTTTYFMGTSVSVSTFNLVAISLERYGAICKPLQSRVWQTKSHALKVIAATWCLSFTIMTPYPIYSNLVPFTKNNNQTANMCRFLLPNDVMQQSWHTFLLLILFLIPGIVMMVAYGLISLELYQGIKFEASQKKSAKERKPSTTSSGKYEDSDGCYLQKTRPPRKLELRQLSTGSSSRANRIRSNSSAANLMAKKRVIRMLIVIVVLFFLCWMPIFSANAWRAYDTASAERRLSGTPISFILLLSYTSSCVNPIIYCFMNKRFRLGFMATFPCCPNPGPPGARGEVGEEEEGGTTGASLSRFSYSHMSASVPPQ

[5] = molecular target: Neuronal acetylcholine receptor subunit alpha-4 (Homo sapiens, UniProt P43681)
Adenosine receptor A1 = molecular target: T3, Adenosine receptor A1 (Homo sapiens, UniProt P30542)
T3 sequence (P30542 whole entry): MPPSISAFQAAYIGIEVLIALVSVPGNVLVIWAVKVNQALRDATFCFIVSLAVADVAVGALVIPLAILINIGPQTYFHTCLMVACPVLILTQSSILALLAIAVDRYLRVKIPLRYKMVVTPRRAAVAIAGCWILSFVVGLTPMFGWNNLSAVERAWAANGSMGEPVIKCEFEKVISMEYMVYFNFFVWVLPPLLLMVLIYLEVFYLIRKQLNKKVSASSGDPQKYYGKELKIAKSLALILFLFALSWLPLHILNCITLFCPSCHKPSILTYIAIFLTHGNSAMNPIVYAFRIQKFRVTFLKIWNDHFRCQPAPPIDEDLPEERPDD

Histamine H2 receptor = Histamine H2 receptor (Homo sapiens, UniProt P25021); assay type: functional, cell-based
Vasopressin V2 receptor = Vasopressin V2 receptor (Homo sapiens, UniProt P30518)
[6] = molecular target: T4, 5-hydroxytryptamine receptor 1A (Homo sapiens, UniProt P08908); assay type: functional, cell-based
T4 sequence (P08908 whole entry): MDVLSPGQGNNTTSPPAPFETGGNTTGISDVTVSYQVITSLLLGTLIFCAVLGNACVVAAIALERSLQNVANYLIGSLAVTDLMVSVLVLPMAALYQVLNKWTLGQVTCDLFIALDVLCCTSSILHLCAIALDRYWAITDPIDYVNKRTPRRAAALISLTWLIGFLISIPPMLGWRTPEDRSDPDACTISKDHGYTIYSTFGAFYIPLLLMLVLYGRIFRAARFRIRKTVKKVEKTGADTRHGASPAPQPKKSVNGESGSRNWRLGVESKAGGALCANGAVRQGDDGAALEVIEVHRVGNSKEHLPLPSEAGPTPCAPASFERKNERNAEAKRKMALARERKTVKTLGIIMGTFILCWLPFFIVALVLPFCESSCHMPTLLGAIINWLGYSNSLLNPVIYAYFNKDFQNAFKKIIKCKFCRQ

[7] = molecular target: T5, Gastrin/cholecystokinin type B receptor (Homo sapiens, UniProt P32239)
T5 sequence (P32239 whole entry): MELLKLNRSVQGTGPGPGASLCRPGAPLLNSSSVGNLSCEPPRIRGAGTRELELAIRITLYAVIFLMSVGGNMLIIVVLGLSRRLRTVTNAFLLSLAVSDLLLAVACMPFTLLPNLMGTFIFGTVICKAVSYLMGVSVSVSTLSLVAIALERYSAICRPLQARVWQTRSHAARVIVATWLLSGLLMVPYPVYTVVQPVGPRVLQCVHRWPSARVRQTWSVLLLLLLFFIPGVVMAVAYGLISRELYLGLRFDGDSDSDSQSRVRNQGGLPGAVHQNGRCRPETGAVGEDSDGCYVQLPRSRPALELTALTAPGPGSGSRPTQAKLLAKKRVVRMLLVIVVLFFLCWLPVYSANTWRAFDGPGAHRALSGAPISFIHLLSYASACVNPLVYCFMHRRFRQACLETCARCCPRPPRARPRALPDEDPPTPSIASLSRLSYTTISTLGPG
Also: assay procedure not described here.

Chain of Vasopressin V2 receptor (P30518 whole entry): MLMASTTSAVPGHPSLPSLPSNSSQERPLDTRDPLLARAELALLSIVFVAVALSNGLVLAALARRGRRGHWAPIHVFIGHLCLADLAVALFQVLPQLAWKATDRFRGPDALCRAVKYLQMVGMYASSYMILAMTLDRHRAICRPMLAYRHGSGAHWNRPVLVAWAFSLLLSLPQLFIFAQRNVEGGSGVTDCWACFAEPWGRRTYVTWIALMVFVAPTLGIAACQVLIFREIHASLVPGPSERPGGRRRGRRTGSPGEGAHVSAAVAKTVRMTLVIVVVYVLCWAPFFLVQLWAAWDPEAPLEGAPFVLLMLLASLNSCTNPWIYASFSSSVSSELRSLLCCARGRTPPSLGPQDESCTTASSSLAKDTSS
Chain of Neuronal acetylcholine receptor subunit alpha-4 (P43681 whole entry): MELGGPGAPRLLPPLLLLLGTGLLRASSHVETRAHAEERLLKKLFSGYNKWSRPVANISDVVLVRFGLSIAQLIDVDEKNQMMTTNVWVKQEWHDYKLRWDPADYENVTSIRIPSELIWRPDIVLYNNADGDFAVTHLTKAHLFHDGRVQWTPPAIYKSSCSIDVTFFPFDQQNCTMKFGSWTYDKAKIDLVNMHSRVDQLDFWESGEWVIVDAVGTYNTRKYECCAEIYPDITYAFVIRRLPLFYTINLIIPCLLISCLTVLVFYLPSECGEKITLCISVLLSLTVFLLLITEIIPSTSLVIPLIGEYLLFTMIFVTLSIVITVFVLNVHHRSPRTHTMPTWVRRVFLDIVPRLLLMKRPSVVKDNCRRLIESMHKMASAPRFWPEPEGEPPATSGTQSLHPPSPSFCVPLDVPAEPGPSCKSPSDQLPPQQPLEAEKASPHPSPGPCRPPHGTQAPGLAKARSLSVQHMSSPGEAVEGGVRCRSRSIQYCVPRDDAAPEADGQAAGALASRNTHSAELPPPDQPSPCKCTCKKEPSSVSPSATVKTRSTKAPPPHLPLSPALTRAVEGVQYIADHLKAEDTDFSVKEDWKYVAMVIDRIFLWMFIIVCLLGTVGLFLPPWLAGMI
Chain of Histamine H2 receptor (P25021 whole entry): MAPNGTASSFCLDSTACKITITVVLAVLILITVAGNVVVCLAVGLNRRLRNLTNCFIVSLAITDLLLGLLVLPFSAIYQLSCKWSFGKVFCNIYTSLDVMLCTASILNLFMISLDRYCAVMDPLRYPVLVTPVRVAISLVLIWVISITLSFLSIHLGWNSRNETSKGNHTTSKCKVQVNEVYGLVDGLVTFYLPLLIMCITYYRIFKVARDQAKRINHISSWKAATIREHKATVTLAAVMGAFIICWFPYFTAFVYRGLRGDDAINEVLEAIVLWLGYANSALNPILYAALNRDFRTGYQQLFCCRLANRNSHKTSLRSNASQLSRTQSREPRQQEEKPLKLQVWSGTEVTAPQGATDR
Chain of cGMP-inhibited 3',5'-cyclic phosphodiesterase 3A (Q14432 whole entry): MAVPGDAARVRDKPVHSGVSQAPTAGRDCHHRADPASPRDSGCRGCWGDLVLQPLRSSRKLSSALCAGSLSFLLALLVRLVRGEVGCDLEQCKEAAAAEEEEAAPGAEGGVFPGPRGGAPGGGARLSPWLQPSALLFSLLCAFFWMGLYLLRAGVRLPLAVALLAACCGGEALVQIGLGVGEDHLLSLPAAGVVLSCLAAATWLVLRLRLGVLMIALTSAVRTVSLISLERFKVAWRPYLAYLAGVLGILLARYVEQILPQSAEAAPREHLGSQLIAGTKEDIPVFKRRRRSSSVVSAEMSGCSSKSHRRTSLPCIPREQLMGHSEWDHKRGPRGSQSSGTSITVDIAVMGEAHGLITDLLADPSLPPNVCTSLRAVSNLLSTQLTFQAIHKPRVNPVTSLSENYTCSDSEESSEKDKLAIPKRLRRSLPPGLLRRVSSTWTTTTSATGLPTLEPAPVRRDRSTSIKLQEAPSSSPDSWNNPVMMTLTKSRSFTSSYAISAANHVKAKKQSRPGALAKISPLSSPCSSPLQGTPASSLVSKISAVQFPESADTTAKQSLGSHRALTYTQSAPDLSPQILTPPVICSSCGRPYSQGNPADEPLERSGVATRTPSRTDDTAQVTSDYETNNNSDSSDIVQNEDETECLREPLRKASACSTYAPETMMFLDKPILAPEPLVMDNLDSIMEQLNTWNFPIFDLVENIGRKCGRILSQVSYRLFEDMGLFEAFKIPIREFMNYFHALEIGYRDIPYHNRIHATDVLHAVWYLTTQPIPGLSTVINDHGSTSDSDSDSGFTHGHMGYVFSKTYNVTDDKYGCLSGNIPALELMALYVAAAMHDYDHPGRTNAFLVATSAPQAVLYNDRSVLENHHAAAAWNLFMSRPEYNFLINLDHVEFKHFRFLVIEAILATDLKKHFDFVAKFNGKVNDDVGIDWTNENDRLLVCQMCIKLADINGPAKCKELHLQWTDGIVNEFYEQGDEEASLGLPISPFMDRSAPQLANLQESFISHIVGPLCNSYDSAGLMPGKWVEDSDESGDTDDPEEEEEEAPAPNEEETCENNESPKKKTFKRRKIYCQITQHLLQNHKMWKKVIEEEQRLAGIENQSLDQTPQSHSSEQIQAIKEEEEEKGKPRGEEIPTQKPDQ
Chain of Mu-type opioid receptor (P35372 whole entry): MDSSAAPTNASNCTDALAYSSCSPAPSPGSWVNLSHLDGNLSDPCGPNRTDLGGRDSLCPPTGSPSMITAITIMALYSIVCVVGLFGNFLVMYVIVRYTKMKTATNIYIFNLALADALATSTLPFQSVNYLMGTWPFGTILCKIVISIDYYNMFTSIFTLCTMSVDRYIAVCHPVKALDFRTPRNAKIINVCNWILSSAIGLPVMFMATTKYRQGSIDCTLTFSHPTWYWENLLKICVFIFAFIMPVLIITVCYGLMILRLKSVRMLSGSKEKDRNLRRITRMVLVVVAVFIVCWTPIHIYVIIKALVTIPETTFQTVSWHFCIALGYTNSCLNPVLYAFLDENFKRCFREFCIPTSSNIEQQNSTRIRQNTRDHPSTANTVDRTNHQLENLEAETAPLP
Chain of 3',5'-cyclic-AMP phosphodiesterase 4D (Q08499 whole entry): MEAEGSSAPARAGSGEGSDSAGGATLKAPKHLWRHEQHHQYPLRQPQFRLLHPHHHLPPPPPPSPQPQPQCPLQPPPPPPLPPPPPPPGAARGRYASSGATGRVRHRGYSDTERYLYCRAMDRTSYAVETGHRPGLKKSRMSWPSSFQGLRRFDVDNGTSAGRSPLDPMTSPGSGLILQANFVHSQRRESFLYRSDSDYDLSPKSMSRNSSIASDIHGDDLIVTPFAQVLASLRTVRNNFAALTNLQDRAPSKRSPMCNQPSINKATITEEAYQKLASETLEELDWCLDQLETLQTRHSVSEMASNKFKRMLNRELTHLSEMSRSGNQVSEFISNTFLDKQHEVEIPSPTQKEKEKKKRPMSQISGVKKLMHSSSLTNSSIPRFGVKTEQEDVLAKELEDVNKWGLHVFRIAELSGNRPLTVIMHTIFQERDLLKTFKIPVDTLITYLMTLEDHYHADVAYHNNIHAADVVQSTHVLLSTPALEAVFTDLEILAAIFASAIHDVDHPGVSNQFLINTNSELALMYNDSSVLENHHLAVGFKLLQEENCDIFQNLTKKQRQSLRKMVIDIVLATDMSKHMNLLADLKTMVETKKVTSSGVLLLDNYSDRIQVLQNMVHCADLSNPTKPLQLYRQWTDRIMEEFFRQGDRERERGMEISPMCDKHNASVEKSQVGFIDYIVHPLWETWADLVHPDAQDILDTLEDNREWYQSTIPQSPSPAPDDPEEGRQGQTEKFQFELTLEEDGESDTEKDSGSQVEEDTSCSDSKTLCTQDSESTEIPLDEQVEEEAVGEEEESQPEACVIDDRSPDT

Structure (SMILES)	AC50 (Mu-type opioid receptor)	AC50 [1]	AC50 [2]	AC50 [3]	AC50 [4]	AC50 [5]	AC50 (Adenosine receptor A1)	AC50 (Histamine H2 receptor)	AC50 (Vasopressin V2 receptor)	AC50 [6]	AC50 [7]
Cc1cc2c(cc1S(N)(=O)=O)S(=O)(=O)CCC2	> 30 µM	–	–	–	–	–	–	–	–	–	–
C[C@H](N[C@@H](CCc1ccccc1)C(=O)O)C(=O)N1Cc2ccccc2C[C@H]1C(=O)O	> 30 µM	–	–	–	–	–	–	–	–	–	–
O=C(O)[C@@H]1C[C@@H](O)CN1	> 10 µM	–	–	–	–	–	–	–	–	–	–
CC1(C)S[C@@H]2[C@H](/N=C/N3CCCCCC3)C(=O)N2[C@H]1C(=O)O [AMDINOCILLIN]	> 30 µM	–	–	–	–	–	–	–	–	–	–
CC(=O)[C@]1(N)Cc2c(O)c3c(c(O)c2[C@@H](O[C@H]2C[C@H](O)[C@H](O)CO2)C1)C(=O)c1ccccc1C3=O [AMRUBICIN]	> 30 µM	–	–	–	–	–	–	–	–	–	–
NC(=O)[C@@H]1CC[C@@H]2CN1C(=O)N2OS(=O)(=O)O [AVIBACTAM]	> 30 µM	–	–	–	–	–	–	–	–	–	–
CC(=O)OC[C@H]1O[C@@H](n2ncc(=O)[nH]c2=O)[C@H](OC(C)=O)[C@@H]1OC(C)=O [AZARIBINE]	> 30 µM	–	–	–	–	–	–	–	–	–	–
CC(C)(C)NC(=O)N[C@H](C(=O)N1C[C@H]2[C@@H]([C@H]1C(=O)NC(CC1CCC1)C(=O)C(N)=O)C2(C)C)C(C)(C)C (some centres not stated) [BOCEPREVIR]	> 30 µM	–	–	–	–	–	–	–	–	–	–
C=C1CC[C@H](O)C/C1=C/C=C1\CCC[C@]2(C)[C@@H]([C@H](C)CCCC(C)C)CC[C@@H]12 [CHOLECALCIFEROL]	> 30 µM	–	–	–	–	–	–	–	–	–	–
Cc1ncc2c(c1O)COC2c1ccc(Cl)cc1 (configuration not stated) [CICLETANINE]	> 30 µM	–	–	–	–	–	–	–	–	–	–
Cc1cn([C@H]2O[C@@H](CO)[C@H](O)[C@H]2F)c(=O)[nH]c1=O [CLEVUDINE]	> 30 µM	–	–	–	–	–	–	–	–	–	–
CC(=O)[C@H]1CC[C@H]2[C@@H]3C=CC4=CC(=O)CC[C@@]4(C)[C@@H]3CC[C@]12C [DYDROGESTERONE]	> 30 µM	–	–	–	–	–	–	–	–	–	–
CN[C@]1(c2ccccc2Cl)CCCCC1=O [ESKETAMINE]	–	> 30 µM	> 30 µM	> 30 µM	> 30 µM	> 30 µM	> 30 µM	> 30 µM	> 30 µM	> 30 µM	> 30 µM
CNCCc1ccc(OC(=O)C(C)C)c(OC(=O)C(C)C)c1 [IBOPAMINE]	–	> 30 µM	8.4 µM	> 30 µM	> 30 µM	> 30 µM	> 30 µM	> 30 µM	> 30 µM	> 30 µM	> 30 µM
CCOC(=O)C1=C(C)NC(C)=C(C(=O)OCC)C1c1ccccc1/C=C/C(=O)OC(C)(C)C [LACIDIPINE]	–	> 30 µM	> 30 µM	12 µM	> 30 µM	> 30 µM	> 30 µM	> 30 µM	> 30 µM	> 30 µM	> 30 µM
COC(=O)C1=C(C)NC(C)=C(C(=O)OCCN2CCN(C(c3ccccc3)c3ccccc3)CC2)C1c1cccc([N+](=O)[O-])c1 (configuration not stated) [MANIDIPINE 6300]	–	> 30 µM	> 30 µM	> 30 µM	> 30 µM	> 30 µM	> 30 µM	> 30 µM	> 30 µM	> 30 µM	> 30 µM
C=C1c2cccc(O)c2C(=O)C2=C(O)[C@]3(O)C(=O)C(C(N)=O)=C(O)[C@@H](N(C)C)[C@@H]3[C@@H](O)[C@H]12 [METHACYCLINE]	–	> 30 µM	> 10 µM	> 30 µM	> 30 µM	> 30 µM	> 30 µM	> 10 µM	> 30 µM	> 10 µM	> 30 µM
CN(Cc1cnc2nc(N)nc(N)c2n1)c1ccc(C(=O)N[C@@H](CCC(=O)O)C(=O)O)cc1 [METHOTREXATE]	–	> 30 µM	> 10 µM	> 30 µM	> 30 µM	> 10 µM	> 30 µM	> 10 µM	> 30 µM	> 10 µM	> 30 µM
O=C1c2cccc3c2[C@H](CCC3)CN1[C@@H]1CN2CCC1CC2 [PALONOSETRON]	–	> 30 µM	4 µM	> 30 µM	> 30 µM	38.5 µM	> 30 µM	> 30 µM	> 30 µM	> 30 µM	> 30 µM
OC[C@H]1O[C@@H](n2cnc3c2NC=NC[C@H]3O)C[C@@H]1O [PENTOSTATIN]	–	> 30 µM	> 30 µM	> 30 µM	> 30 µM	> 30 µM	0.41 µM	> 30 µM	> 30 µM	> 30 µM	> 30 µM
Cc1cccc(C)c1NC(=O)CC12CCCN1CCC2 [PILSICAINIDE]	–	> 30 µM	> 30 µM	> 30 µM	> 30 µM	> 30 µM	> 30 µM	> 30 µM	> 30 µM	> 30 µM	> 30 µM
CN[C@@H](C)[C@@H](O)c1ccccc1 [PSEUDOEPHEDRINE]	–	> 30 µM	13 µM	> 30 µM	> 30 µM	> 10 µM	> 30 µM	> 10 µM	> 30 µM	> 10 µM	> 30 µM
CCCN1CC(NS(=O)(=O)N(CC)CC)CC2Cc3c(O)cccc3CC21 (configuration not stated) [QUINAGOLIDE]	–	> 30 µM	11 µM	> 30 µM	> 30 µM	> 30 µM	> 30 µM	> 30 µM	> 30 µM	1.1 µM	> 30 µM
C[C@]12CCC(=O)C[C@@H]1CC[C@@H]1[C@@H]2CC[C@]2(C)[C@@H](O)CC[C@@H]12 [STANOLONE]	–	> 30 µM	> 30 µM	> 30 µM	> 30 µM	> 30 µM	> 30 µM	> 30 µM	> 30 µM	> 30 µM	> 30 µM
O=C1OC(OC(=O)c2cccnc2Nc2cccc(C(F)(F)F)c2)c2ccccc21 (configuration not stated) [TALNIFLUMATE]	–	> 30 µM	> 30 µM	5.2 µM	> 30 µM	> 30 µM	> 30 µM	> 30 µM	> 30 µM	> 30 µM	> 30 µM
CCOC(=O)c1c(CSc2ccccc2)n(C)c2cc(Br)c(O)c(CN(C)C)c12 [UMIFENOVIR]	–	> 30 µM	12 µM	5.6 µM	> 30 µM	> 30 µM	> 30 µM	> 30 µM	> 30 µM	> 30 µM	> 30 µM
